Read-outs that look alike come from different tables or passages of the source.
Key:
Format in all cases: physicochemical
[1] = Humidity microbalance analysis (VTI), moisture sorption at 25° C.; details: for hygroscopicity / moisture uptake in words: variations in humidity
Description: Thus, Modification C retains a stable weight from 0% relative humidity to 80% relative humidity while Modification A loses water with decreasing humidity and gains moisture with increasing humidity. With Modification C, a re-hydration step and the possible variability in water content between batches may thus be eliminated.
Modification N is particularly suitable for industrial scale-up. It is a crystalline anhydrous form.
Modification O is particularly suitable for industrial scale-up. It is a crystalline anhydrous form.

[2] = Water loss as a function of temperature by TG/DTA (loss on drying, thermal transitions); details: for Loss On Drying (LOD) (%): total water loss by thermogravimetry, rt-295° C., 10°/min; for LOD (thermal transitions): DTA signals, temperature at which the water is lost
Description: (ii) Thermogravimetric/Differential Thermal Analysis (TG/DTA) […]
The data listed below show the total water loss (LOD by thermogravimetry (TG)) and thermal transitions (DTA signals) show the temperature at which the water is lost.

[3] = Solubility in common process solvents
[4] = Physical stability of the crystalline forms (relative humidity, absorption-desorption isotherm FIG. 1, temperature, storage); details: for physical stability (change into another form): storage / ambient conditions
[5] = Vacuum thermogravimetric analysis (VTGA): drying and re-exposure to ambient conditions; details: for hygroscopicity in words: concluded from VTGA re-exposure; for time until sample mass decreases to a steady value (drying complete): vacuum 50 mbar, 50° C., wet solid
Procedure: The wet solid obtained by filtering the crystallization slurry is placed in a cup placed in a cell (i.e., a small chamber) and suspended form a microbalance; vacuum is applied to the cell, and the chamber is subsequently heated. The sample mass is monitored and recorded continuously, indicating when the sample drying is complete and if moisture uptake occurs when the cell is opened to the ambient atmosphere.
1.1149 g of Modification A solid, 0.089 g of distilled water and 10 mL of acetonitrile are added to a glass vial. The mixture is stirred vigorously at 20° C. for 18 hours. The mixture is filtered using vacuum and the wet cake is dried in a VTGA cell at approximately 50° C. and 20 mbar for approximately 5 hours.
1.2137 g of Modification A solids and 15 mL of anhydrous THF, 99.9%, are added to a glass vial. The mixture is heated to 45° C. with vigorous stirring. After slurrying at 45° C. for approximately 19 hours, the sample is filtered by vacuum and the wet cake is dried using the VTGA at approximately 50° C. and 20 mbar for approximately 5 hours.

[6] = Dynamic vapor absorption experiment; details: dried product of Example 20
Procedure: 2.0 g of Modification A, 17 mL of THF and 17 mL of 200-proof ethanol are added to a jacketed 100-mL glass reactor equipped with an overhead stirrer. The mixture is heated to approximately 50° C. with vigorous agitation to obtain a clear solution. To the warm solution, 3 mL of heptanes are added. In a small glass vial, 0.02 g of seed particles (Modification C, prepared from a previous batch) are added to 1 mL of heptanes, and the slurry is sonicated for approximately 1 minute. The seed slurry is then added to the warm solution to obtain a turbid solution at 50° C. To the turbid solution, 35 mL of heptanes are added as follows. First, 5 mL of heptanes are added over a 30-min period, followed by 75-min hold. Subsequently, an additional 30 m L of heptanes are added over 1.5 hours. The resulting thick slurry is cooled to 10° C. in 50 minutes. The slurry is filtered by vacuum, and the wet cake is washed with 25 mL of anhydrous THF and dried at 65° C. and 10 mbar. […] Based on Karl Fisher analysis, the dried solid contained 3.6% water.

[7] = Hygroscopicity (statement, no method given)

| Structure (SMILES) | Mass uptake (% water absorbed) ([1]; 0 % residual humidity) [%] | Mass uptake (% water absorbed) ([1]; 10 % residual humidity) [%] | Mass uptake (% water absorbed) ([1]; 50 % residual humidity) [%] | Mass uptake (% water absorbed) ([1]; 60 % residual humidity) [%] | Mass uptake (% water absorbed) ([1]; 70 % residual humidity) [%] | Mass uptake (% water absorbed) ([1]; 79 % residual humidity) [%] | Mass uptake (% water absorbed) ([1]; 90 % residual humidity) [%] | Mass uptake (% water absorbed) ([1]; 95 % residual humidity) [%] | hygroscopicity / moisture uptake in words [1] | Loss On Drying (LOD) (%) [2] [%] | physical stability (change into another form) [4] | time until sample mass decreases to a steady value (drying complete) [5] | other results |
| --- | --- | --- | --- | --- | --- | --- | --- | --- | --- | --- | --- | --- | --- |
| O=C([O-])C[C@H]1CC[C@H](c2ccc(-c3ccc(Nc4ccc(C(F)(F)F)nc4)cn3)cc2)CC1.[Na+] [Modification A, sodium salt of (4-{4-[5-(6-trifluoromethyl-pyridin-3-ylamino)-pyridin-2-yl]-phenyl}-cyclohexyl)-acetic acid] | 0.0 | 3.9 | 12.0 | 12.0 | 17.3 | 17.5 | 17.4 | 17.1 | takes up much more moisture compared to Modification C | 9.1 | converts to another form in samples that have not been refrigerated | about 18 hours | relative humidity at which moisture gain starts / becomes significant [1]: 10 % relative humidity; solubility in common process solvents [3]: relatively low; hygroscopicity in words ([4]; sorption profile FIG. 1): very hygroscopic; total mass gain due to moisture uptake upon opening the cell ([5]; after drying, 1000 mbar, ambient temperature, plateau at ca. 90 hours): 10.4%; hygroscopicity in words [5]: highly hygroscopic |
| O=C([O-])C[C@H]1CC[C@H](c2ccc(-c3ccc(Nc4ccc(C(F)(F)F)nc4)cn3)cc2)CC1.[Na+] [Modification C, sodium salt of (4-{4-[5-(6-trifluoromethyl-pyridin-3-ylamino)-pyridin-2-yl]-phenyl}-cyclohexyl)-acetic acid] | 0.0 | 0.0 | 0.1 | 0.2 | 0.4 | 0.8 | 12.0 | 15.6 | does not lose or gain moisture | 2.8 | does not change into another form under ambient conditions | less than 1 hours | relative humidity at which moisture gain starts / becomes significant ([1]; listed as Form C): > 80 % relative humidity; LOD (thermal transitions) ([2]; listed as C): 126 °C; LOD (thermal transitions) ([2]; listed as modification C): 126 °C; temperature above which water is lost ([4]; heating): over 85 °C; hygroscopicity in words [6]: much lower hygroscopicity than Modification A; mass uptake of moisture ([6]; from 0 to 80% relative humidity): 0.3%; mass change upon opening the cell to the ambient environment ([5]; Example 17, after drying at 50° C. and 20 mbar, 30%-56% relative humidity): no mass change occurs; mass gain when the dried solid was exposed to air ([5]; Example 18, approximately 15 hours at 20° C. and 43-59% relative humidity): No mass gain was observed; sample mass change upon opening the cell ([5]; after drying, 1000 mbar, ambient temperature): the sample mass does not change; hygroscopicity in words ([5]; listed as Form C): not hygroscopic |
| O=C([O-])C[C@H]1CC[C@H](c2ccc(-c3ccc(Nc4ccc(C(F)(F)F)nc4)cn3)cc2)CC1.[Na+] [Modification K, sodium salt of (4-{4-[5-(6-trifluoromethyl-pyridin-3-ylamino)-pyridin-2-yl]-phenyl}-cyclohexyl)-acetic acid] |  |  |  |  |  |  |  |  |  |  |  |  | LOD (thermal transitions) ([2]; listed as K): 134.5 °C; Loss On Drying (LOD) (%) ([2]; listed as K): 2.4%; hygroscopicity in words [7]: low hygroscopicity |
